Patent publication US11285130B2, “Treatment of mitochondrial diseases” (Khondrion IP B.V., priority 2017, dated 2022)
Read-outs that look alike come from different tables or passages of the source.

Key:
[1] = system: primary human fibroblasts from patients with Leigh syndrome; assay: Oxidative stress-induced cell death (BSO) assay, Leigh patient fibroblasts; assay type: cell-based
Source text: (§1) To determine the effective concentration of the compounds (the concentrations that protect patient cells against oxidative stress-induced cell death) the applicant established an assay using stressed primary human fibroblasts from patients with Leigh syndrome, MELAS or LHON diseases. Utilising the inherent oxidative stress of fibroblasts from patients with mitochondrial disease, their oxidative burden was further increased by depleting cellular glutathione with an inhibitor of glutathione synthesis, L-buthionine-(S,R)-sulfoximine (BSO). […] Cells were seeded at a density of 3000 cells/well in a 96-well format and incubated with increasing concentrations of compounds in combination with BSO (100 μM, Sigma-aldrich). One day after treatment, the cells were washed twice and stained with a solution of 5 μM calcein-AM (Life technologies C3100MP) during 25 min in 199 medium without phenol red (Life technologies, 11043-023) at room temperature. After 2 washes with PBS (Phosphate buffered saline) the plate was read on a fluorescence plate reader (Fluostar Omega, BMG labtech) and the percentage of cell viability determined as a function of fluorescence intensity.

[2] = system: primary human fibroblasts from patients with MELAS; assay: Oxidative stress-induced cell death (BSO) assay, MELAS patient fibroblasts; assay type: cell-based; settings: fibroblasts derived from MELAS patients, 100 μM BSO; read-out: EC50, protection from oxidative stress-induced cell death
Source text: as §1

[3] = system: primary human fibroblasts from patients with LHON; assay: Oxidative stress-induced cell death (BSO) assay, LHON patient fibroblasts; assay type: cell-based; settings: fibroblasts derived from LHON patients, 100 μM BSO; read-out: EC50, protection from oxidative stress-induced cell death
Source text: as §1

[4] = SAD study pharmacokinetic analysis; assay type: in vivo, human
Protocol: (§2) Dose escalation to the next dose level was done after evaluation of the safety and the first 24-hour pharmacokinetic results of the previous dose. […] Anticipated exposures at this starting dose were just below the Minimum Anticipated Biological Effect Level (MABEL). Placebo (an in taste and appearance matching oral liquid) was also administered orally on one occasion in the single-ascending dose part and b.i.d. for 7 Days in the MAD part. […] All samples were stored at <-70° C. until analysis. […] For mean value calculations, all values below the limit of quantification (LOQ) were set to zero. […] The non-compartmental pharmacokinetic analysis was performed using Phoenix, Version 6.3 (Pharsight Corporation, Mountain View, Calif., USA). […] The PK parameters were calculated on the basis of the actual blood sampling time points relative to dosing. Selected pharmacokinetic parameters (Cmax, tmax, t1/2, AUClast and AUC0-int) following single-dose administration and selected pharmacokinetic parameters Cmax, tmax, [NT], the accumulation factor (Racc) and time to reach steady state) following multiple dose administration were determined. In urine, the percentage of dose excreted in urine was determined for the single- and multiple-dose administration.

[5] = MAD study pharmacokinetic analysis; assay type: in vivo, human; settings: for AUCtau (Geomean) / Cmax (Geomean) / tmax* (median) / Racc (accumulation ratio, Geomean): MAD
Protocol: as §2

COC1=C(OC)C(=O)C(CCCCCCCCCCO)=C(C)C1=O [Idebenone, reference compound]
EC50 ([1]; Homo sapiens, in vitro fibroblast assays (Redox assay), fibroblast type not given, values match Leigh, read-out: EC50): 1470 nM

CC1=C(C)C(=O)C(CC[C@](C)(O)C(=O)N[C@@H]2CCCNC2)=C(C)C1=O [KH176m]
EC50 ([1]; fibroblasts derived from Leigh patients, 100 μM BSO, one day, calcein-AM viability, read-out: EC50 (half maximum effective concentration), protection from oxidative stress-induced cell death): 16 nM | EC50 expressed in ng/mL ([1]; in vitro fibroblast assays (Redox assay), fibroblast type not given, values match Leigh): around 5.8 ng/mL | EC50 ([1]; in vitro fibroblast assays (Redox assay), fibroblast type not given, values match Leigh, read-out: EC50): 16 nM | EC50 [2]: 14 nM | EC50 [3]: 4 nM | AUC0-inf ratio (fed/fasted), 90% CI ([4]; 100 mg, fed versus fasted): 0.90 (90% Cl 0.57-1.41) | AUC0-inf (Geomean) ([4]; SAD, KH176 10 mg, fasted): 234 ng·h/mL | AUClast (Geomean) ([4]; SAD, KH176 10 mg, fasted): 151 ng·h/mL | Cmax (Geomean) ([4]; SAD, KH176 10 mg, fasted): 14.2 ng/mL | t1/2 (Geomean) ([4]; SAD, KH176 10 mg, fasted): 16.6 h | tmax* (median) ([4]; SAD, KH176 10 mg, fasted): 1.25 h | AUC0-inf (Geomean) ([4]; SAD, KH176 30 mg, fasted): 881 ng·h/mL | AUClast (Geomean) ([4]; SAD, KH176 30 mg, fasted): 547 ng·h/mL | Cmax (Geomean) ([4]; SAD, KH176 30 mg, fasted): 49.4 ng/mL | t1/2 (Geomean) ([4]; SAD, KH176 30 mg, fasted): 17.8 h | tmax* (median) ([4]; SAD, KH176 30 mg, fasted): 1.50 h | AUC0-inf (Geomean) ([4]; SAD, KH176 100 mg, fasted): 2690 ng·h/mL | AUClast (Geomean) ([4]; SAD, KH176 100 mg, fasted): 1810 ng·h/mL | Cmax (Geomean) ([4]; SAD, KH176 100 mg, fasted): 168 ng/mL | t1/2 (Geomean) ([4]; SAD, KH176 100 mg, fasted): 15.4 h | tmax* (median) ([4]; SAD, KH176 100 mg, fasted): 1.25 h | AUC0-inf (Geomean) ([4]; SAD, KH176 100 mg, fed): 2410 ng·h/mL | AUClast (Geomean) ([4]; SAD, KH176 100 mg, fed): 1590 ng·h/mL | Cmax (Geomean) ([4]; SAD, KH176 100 mg, fed): 117 ng/mL | t1/2 (Geomean) ([4]; SAD, KH176 100 mg, fed): 14.9 h | tmax* (median) ([4]; SAD, KH176 100 mg, fed): 2.50 h | AUC0-inf (Geomean) ([4]; SAD, KH176 300 mg, fasted): 6890 ng·h/mL | AUClast (Geomean) ([4]; SAD, KH176 300 mg, fasted): 4830 ng·h/mL | Cmax (Geomean) ([4]; SAD, KH176 300 mg, fasted): 497 ng/mL | t1/2 (Geomean) ([4]; SAD, KH176 300 mg, fasted): 14.3 h | tmax* (median) ([4]; SAD, KH176 300 mg, fasted): 1.24 h | AUC0-inf (Geomean) ([4]; SAD, KH176 800 mg, fasted): 18700 ng·h/mL | AUClast (Geomean) ([4]; SAD, KH176 800 mg, fasted): 11700 ng·h/mL | Cmax (Geomean) ([4]; SAD, KH176 800 mg, fasted): 1100 ng/mL | t1/2 (Geomean) ([4]; SAD, KH176 800 mg, fasted): 17.2 h | tmax* (median) ([4]; SAD, KH176 800 mg, fasted): 1.50 h | AUC0-inf (Geomean) ([4]; SAD, KH176 2000 mg, fasted): 41300 ng·h/mL | AUClast (Geomean) ([4]; SAD, KH176 2000 mg, fasted): 23900 ng·h/mL | Cmax (Geomean) ([4]; SAD, KH176 2000 mg, fasted): 1780 ng/mL | t1/2 (Geomean) ([4]; SAD, KH176 2000 mg, fasted): 18.9 h | tmax* (median) ([4]; SAD, KH176 2000 mg, fasted): 1.75 h | t1/2 ([4]; SAD, approximate, across dose groups): approximately 16 h | median tmax ([4]; fasted condition (100 mg)): approximately 1 h | median tmax ([4]; fed condition (100 mg, high calorie/high fat breakfast)): 2.5 h | AUCtau (Geomean) ([5]; KH176 100 mg b.i.d, Day 1): 702 ng·h/mL | Cmax (Geomean) ([5]; KH176 100 mg b.i.d, Day 1): 99.4 ng/mL | tmax* (median) ([5]; KH176 100 mg b.i.d, Day 1): 1.50 h | AUCtau (Geomean) ([5]; KH176 100 mg b.i.d, Day 7): 1310 ng·h/mL | Cmax (Geomean) ([5]; KH176 100 mg b.i.d, Day 7): 152 ng/mL | Racc (accumulation ratio, Geomean) ([5]; KH176 100 mg b.i.d, Day 7): 1.86 | tmax* (median) ([5]; KH176 100 mg b.i.d, Day 7): 1.00 h | AUCtau (Geomean) ([5]; KH176 200 mg b.i.d, Day 1): 1680 ng·h/mL | Cmax (Geomean) ([5]; KH176 200 mg b.i.d, Day 1): 251 ng/mL | tmax* (median) ([5]; KH176 200 mg b.i.d, Day 1): 1.75 h | AUCtau (Geomean) ([5]; KH176 200 mg b.i.d, Day 7): 2220 ng·h/mL | Cmax (Geomean) ([5]; KH176 200 mg b.i.d, Day 7): 250 ng/mL | Racc (accumulation ratio, Geomean) ([5]; KH176 200 mg b.i.d, Day 7): 1.32 | tmax* (median) ([5]; KH176 200 mg b.i.d, Day 7): 1.50 h | AUCtau (Geomean) ([5]; KH176 400 mg b.i.d, Day 1): 3600 ng·h/mL | Cmax (Geomean) ([5]; KH176 400 mg b.i.d, Day 1): 550 ng/mL | tmax* (median) ([5]; KH176 400 mg b.i.d, Day 1): 1.25 h | AUCtau (Geomean) ([5]; KH176 400 mg b.i.d, Day 7): 4270 ng·h/mL | Cmax (Geomean) ([5]; KH176 400 mg b.i.d, Day 7): 450 ng/mL | Racc (accumulation ratio, Geomean) ([5]; KH176 400 mg b.i.d, Day 7): 1.19 | tmax* (median) ([5]; KH176 400 mg b.i.d, Day 7): 1.50 h | AUCtau (one dosing interval, 12 hours), range ([5]; steady state, 100 mg BID): 851 to 1570 ng·h/mL | average concentrations, range ([5]; steady state, 100 mg BID): 70.9 to 130.8 ng/mL | maximum concentration, range ([5]; steady state, 100 mg BID, healthy subjects): 89.4 to 204 ng/mL
